Data: patent US20250177408A1, “INHIBITOR OF INTERACTION BETWEEN YAP/TAZ AND TEAD, PREPARATION THEREOF, PHARMACEUTICAL COMPOSITION THEREOF AND USE THEREOF” (ETERN BIOPHARMA (SHANGHAI) CO., LTD., priority 2022, published 2025)
Where two headings read alike, the source gives them in different places.

Key:
[1] = molecular target: YAP-TEAD protein interaction (His-TEAD1 (209-426) protein, Bio-YAP peptide (60-100)) (Homo sapiens, UniProt P28347); assay: YAP-TEAD protein interaction HTRF experiment; type: binding; conditions: His-TEAD1 (209-426) 10 nM, Bio-YAP peptide 50 nM, read-out: Activity of each compound in blocking YAP-TEAD protein interaction (grades of IC50 values)
Sequence of YAP-TEAD protein interaction (His-TEAD1 (209-426) protein, Bio-YAP peptide (60-100)) (P28347 209-426): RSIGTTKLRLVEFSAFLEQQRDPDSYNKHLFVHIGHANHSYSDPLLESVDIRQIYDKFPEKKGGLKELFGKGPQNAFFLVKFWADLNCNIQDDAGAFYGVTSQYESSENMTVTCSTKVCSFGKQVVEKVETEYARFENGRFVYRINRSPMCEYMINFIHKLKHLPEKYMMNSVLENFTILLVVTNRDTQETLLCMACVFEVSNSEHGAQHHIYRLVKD
Description: In this example, the YAP-TEAD protein interaction HTRF experiment was used to detect the activity of each compound in blocking the YAP-TEAD protein interaction.
The experiment was carried out according to the following operation steps:
Step 1: His-TEAD1 (209-426) protein was added to a 384-well detection white plate to a final concentration of 10 nM, and buffer was used as the background signal well. The compounds to be tested were subjected to 3-fold dilution and a total of 10 concentration gradients were set up, and each diluted solution was mixed well. A certain volume of the compound to be tested was added to each well separately, 2 replicates were set for each concentration, and the final concentration of DMSO was controlled at 1%. Incubation was carried out at room temperature for 20 minutes. The amino acid sequence of TAED1 (209-426) used in this step is shown in SEQ ID NO: 1:
After mixing evenly, the mixture was incubated at room temperature for 10 minutes.
Step 3: Anti-His-Eu cryptate gold and streptavidin-XL665 were diluted according to the instructions and mixed in equal proportions. A certain volume of the detection reagent was added to the well, and the mixture was incubated at room temperature for 1 hour.
Step 4: The signal was detected using an Envision (Perkin Elmer) microplate reader at an excitation wavelength of 320 nm and emission wavelengths of 665 nm and 620 nm.
Step 5: The signal was calculated based on the ratio of Em665/Em620*10000.
(§1) The inhibition percentage (%) was calculated using the following formula: […]
The half-maximal inhibitory concentration (IC50) values were calculated using GraphPad Prism software.

MSTO-211H cells = assay: Cell proliferation inhibition experiment (CellTiter-Glo); type: cell-based; conditions: 96 hours, read-out: Inhibitory activity of each compound on the proliferation of MSTO-211H cells (grades of IC50 values)
Description: In this example, the intracellular ATP was quantitatively determined by the CellTiter-Glo luminescence cell viability detection kit to detect the number of living cells in the culture.
Step 1: MSTO-211H (ATCC, CRL-2081TM) or NCI-H2052 (ATCC, CRL-5915TM) cells were inoculated in a 96-well plate at a density of 1500 cells per well with a volume of 100 μL per well, and the cells were incubated overnight in a 37° C., 5% carbon dioxide incubator. The culture medium used was RPMI1640 medium (GIBCO-A10491-01)+10% FBS (GIBCO-10099141C)+1% penicillin/streptomycin (Pen/Strep) (GIBCO-15070-063).
Step 2: The cells were treated with the compounds to be tested. The compounds to be tested were 3-fold diluted, and a total of 9 concentration gradients were set up; a certain volume of DMSO or the compounds to be tested was added to each well, respectively, and 2 replicates were set up for each concentration, and the final concentration of DMSO was controlled to be no higher than 0.5%. The cells were incubated for 96 hours in a 37° C., 5% carbon dioxide incubator.
Step 3: Cell viability was detected in the control group and treatment group using CellTiter-Glo Luminescent Cell Viability Assay kit (Promega, G7570). 50 μL of CellTiter-Glo was added to each well, mixed well, and incubated at room temperature for 10 minutes. The signal was read using En Vision® Multilabel Plate Reader (Perkin Elmer).
as §1
Using Graphpad Prism software, the IC50 values of the compounds inhibiting the CTG signal of cell proliferation activity was calculated.

[2H]C1([2H])CC[C@]([2H])([C@@]2(c3ccccc3)Cc3c(cc(F)c(Cl)c3-c3c(C(=O)NC)cc4c(c3F)Oc3c(cnn(CCC(F)(F)F)c3=O)O4)O2)N1 (atropisomer, axis not shown) [Compound 159, (S)-8-((S)-5-Chloro-6-fluoro-2-phenyl-2-((S)-pyrrolidin-2-yl-2,5,5-d3)-2,3-dihydrobenzofuran-4-yl)-9-fluoro-N-methyl-1-oxo-2-(3,3,3-trifluoropropyl)-1,2-dihydroxybenzo [5,6][1,4]dioxo [2,3-d]pyridazine-7-carboxamide]
IC50 [1]: < 50 nM
IC50 (MSTO-211H cells; Homo sapiens): < 200 nM

CNC(=O)c1cc2c(c(F)c1-c1c(Cl)c(F)cc3c1C[C@](c1ccccc1)([C@@H]1CCCN1)O3)Oc1c(cnn(C3CC(F)(F)C3)c1=O)O2 (atropisomer, axis not shown) [Compound 148, (S)-8-((S)-5-Chloro-6-fluoro-2-phenyl-2-((S)-pyrrolidin-2-yl)-2,3-dihydrobenzofuran-4-yl)-2-(3,3-difluorocyclobutyl)-9-fluoro-N-methyl-1-oxo-1,2-dihydrobenzo [5,6][1,4]dioxo [2,3-d]pyridazine-7-carboxamide]
IC50 [1]: < 50 nM
IC50 (MSTO-211H cells; Homo sapiens): < 200 nM

[2H]c1c([2H])c([2H])c([C@]2([C@@H]3CCCN3)Cc3c(cc(F)c(Cl)c3-c3c(C(N)=O)cc4c(c3F)OCc3nn(C)cc3-4)O2)c([2H])c1[2H] (atropisomer, axis not shown) [Compound 116, (S)-7-((S)-5-Chloro-6-fluoro-2-(phenyl-d5)-2-((S)-pyrrolidin-2-yl)-2,3-dihydrobenzofuran-4-yl)-6-fluoro-2-methyl-2,4-dihydrochromeno[3,4-c]pyrazole-8-carboxamide]
IC50 [1]: < 50 nM
IC50 (MSTO-211H cells; Homo sapiens): < 200 nM

NC(=O)c1cc2c(c(F)c1-c1c(Cl)c(F)cc3c1C[C@](c1ccccc1)([C@@H]1CCCN1)O3)Oc1nccnc1O2 (atropisomer, axis not shown) [Compound 10, (S)-8-((S)-5-Chloro-6-fluoro-2-phenyl-2-((S)-pyrrolidin-2-yl)-2,3-dihydrobenzofuran-4-yl)-9-fluorobenzo[5,6][1,4]dioxino[2,3-b]pyrazine-7-carboxamide]
IC50 [1]: < 50 nM
IC50 (MSTO-211H cells; Homo sapiens): < 200 nM

Cn1cc2c(n1)COc1c-2cc(C#N)c(-c2c(Cl)c(F)cc3c2C[C@](c2ccccc2)([C@@H]2CCCN2)O3)c1F (atropisomer, axis not shown) [Compound 2, (S)-7-((S)-5-Chloro-6-fluoro-2-phenyl-2-((S)-pyrrolidin-2-yl)-2,3-dihydrobenzofuran-4-yl)-6-fluoro-2-methyl-2,4-dihydrochromeno[3,4-c]pyrazole-8-carbonitrile]
IC50 [1]: < 50 nM
IC50 (MSTO-211H cells; Homo sapiens): 200 to 500 nM

[2H]C1([2H])CC[C@]([2H])([C@@]2(c3ccccc3)Cc3c(cc(F)c(Cl)c3-c3c(C(=O)NC)cc4c(c3F)Oc3c(cnn(C5CC(F)(F)C5)c3=O)O4)O2)N1 (atropisomer, axis not shown) [Compound 158, (S)-8-((S)-5-Chloro-6-fluoro-2-phenyl-2-((S)-pyrrolidin-2-yl-2,5,5-d3)-2,3-dihydrobenzofuran-4-yl)-2-(3,3-difluorocyclobutyl)-9-fluoro-N-methyl-1-oxo-1,2-dihydrobenzo[5,6][1,4]dioxo [2,3-d]pyridazine-7-carboxamide]
IC50 [1]: < 50 nM
IC50 (MSTO-211H cells; Homo sapiens): < 200 nM

CNC(=O)c1cc2c(c(F)c1-c1c(Cl)c(F)cc3c1C[C@](c1ccccc1)([C@@H]1CCCN1)O3)Oc1c(cnn(CCOC)c1=O)O2 (atropisomer, axis not shown) [Compound 150, (S)-8-((S)-5-Chloro-6-fluoro-2-phenyl-2-((S)-pyrrolidin-2-yl)-2,3-dihydrobenzofuran-4-yl)-9-fluoro-2-(2-methoxyethyl)-N-methyl-1-oxo-1,2-dihydrobenzo [5,6][1,4]dioxo [2,3-d]pyridazine-7-carboxamide]
IC50 [1]: < 50 nM
IC50 (MSTO-211H cells; Homo sapiens): < 200 nM

Cn1ccc2c(c1=O)Oc1c(cc(C(N)=O)c(-c3c(Cl)c(F)cc4c3C[C@](c3ccccc3)([C@@H]3CCCN3)O4)c1F)O2 (atropisomer, axis not shown) [Compound 135, (S)-8-((S)-5-Chloro-6-fluoro-2-phenyl-2-((S)-pyrrolidin-2-yl)-2,3-dihydrobenzofuran-4-yl)-9-fluoro-2-methyl-1-oxo-1,2-dihydrobenzo[5,6][1,4]dioxo[2,3-c]pyridine-7-carboxamide]
IC50 [1]: < 50 nM
IC50 (MSTO-211H cells; Homo sapiens): < 200 nM

CNC[C@@]1(c2ccccc2)Cc2c(cc(F)c(Cl)c2-c2c(C(N)=O)cn3cc(C)nc3c2F)O1 (atropisomer, axis not shown) [Compound I-16, (S)-7-((S)-5-Chloro-6-fluoro-2-((methylamino)methyl)-2-phenyl-2,3-dihydrobenzofuran-4-yl)-8-fluoro-2-methylimidazo[1,2-a]pyridine-6-carboxamide]
IC50 [1]: < 50 nM
IC50 (MSTO-211H cells; Homo sapiens): < 200 nM

NC(=O)c1cc2c(c(F)c1-c1c(Cl)c(F)cc3c1C[C@](c1ccccc1)([C@@H]1CCCN1)O3)Oc1nn(C3CC3)c(=O)cc1O2 (atropisomer, axis not shown) [Compound 128, (S)-8-((S)-5-Chloro-6-fluoro-2-phenyl-2-((S)-pyrrolidin-2-yl)-2,3-dihydrobenzofuran-4-yl)-2-cyclopropyl-9-fluoro-3-oxo-2,3-hydrobenzo[5,6][1,4]dioxo [2,3-c]pyridazine-7-carboxamide]
IC50 [1]: < 50 nM
IC50 (MSTO-211H cells; Homo sapiens): < 200 nM

O=C(NC1CC1)c1cc2c(c(F)c1-c1c(Cl)c(F)cc3c1C[C@](c1ccccc1)([C@@H]1CCCN1)O3)Oc1c(cnn(CC(F)F)c1=O)O2 (atropisomer, axis not shown) [Compound 160]
IC50 [1]: < 50 nM
IC50 (MSTO-211H cells; Homo sapiens): < 200 nM

CNC(=O)c1cc2c(c(F)c1-c1c(Cl)c(F)cc3c1C[C@](c1ccccc1)([C@@H]1CCCN1)O3)Oc1c(cnn(CC(F)(F)F)c1=O)O2 (atropisomer, axis not shown) [Compound 144]
IC50 [1]: < 50 nM
IC50 (MSTO-211H cells; Homo sapiens): < 200 nM

NC(=O)c1cc2c(c(F)c1-c1c(Cl)c(F)cc3c1C[C@](c1ccccc1)([C@@H]1CCCN1)O3)Oc1c(ncn(C3CC3)c1=O)O2 (atropisomer, axis not shown) [Compound 139, (S)-7-((S)-5-Chloro-6-fluoro-2-phenyl-2-((S)-pyrrolidin-2-yl)-2,3-dihydrobenzofuran-4-yl)-3-cyclopropyl-6-fluoro-4-oxo-3,4-dihydrobenzo [5,6][1,4]dioxo [2,3-d]pyrimidine-8-carboxamide]
IC50 [1]: < 50 nM
IC50 (MSTO-211H cells; Homo sapiens): < 200 nM

CCn1ncc2c(c1=O)Oc1c(cc(C(N)=O)c(-c3c(Cl)c(F)cc4c3C[C@](c3ccccc3)([C@@H]3CCCN3)O4)c1F)O2 (atropisomer, axis not shown) [Compound 109, (S)-8-((S)-5-Chloro-6-fluoro-2-phenyl-2-((S)-pyrrolidin-2-yl)-2,3-dihydrobenzofuran-4-yl)-2-ethyl-9-fluoro-1-oxo-1,2-dihydrobenzo[5,6][1,4]dioxo [2,3-d]pyridazine-7-carboxamide]
IC50 [1]: < 50 nM
IC50 (MSTO-211H cells; Homo sapiens): < 200 nM

NC(=O)c1cc2c(c(F)c1-c1c(Cl)c(F)cc3c1C[C@](c1ccccc1)([C@@H]1CCCN1)O3)Oc1cnn(C3CC3)c(=O)c1O2 [Compound 112, (S)-8-((S)-5-Chloro-6-fluoro-2-phenyl-2-((S)-pyrrolidin-2-yl)-2,3-dihydrobenzofuran-4-yl)-3-cyclopropyl-9-fluoro-4-oxo-3,4-dihydrobenzo[5,6][1,4]dioxo[2,3-d]pyridazine-7-carboxamide]
IC50 [1]: < 50 nM
IC50 (MSTO-211H cells): 200 to 500 nM
